# Experimental data taken from patent publication US20120323022A1, “(2'S)-COLUMBIANETIN ISOLATED FROM CORYDALIS HETEROCARPA AND COMPOSITION CONTAINING THE SAME” (priority 2011, published 2012).
# Assays:
# Assay type in all cases: cell-based, Human
# HaCaT cells [1] = assay: MTT assay, viability of UVB-exposed keratinocyte cells; details: UVB 40 mJ/cm^2, incubation 24 h, compared with only UVB-exposed cells, FIG. 2A
# Method: (§1) Human keratinocyte (HaCaT, Korean Cell Line Bank, Seoul, Korea) cells were grown in Dulbecco's modified Eagle medium (DMEM, Gibco-BRL, Gaithersbrug, Md., USA) containing 10% fetal bovine serum (FBS), 2 mM glutamine and 100 μg/mL penicillin-streptomycin (Gibco-BRL, Gaithersbrug, Md., USA) at 37° C. humidified atmosphere of 5% CO2. Cells were sub-cultured to about 90-95% confluence by detaching with trypsin-EDTA solution.
# The viability levels of keratinocyte cells were determined by the ability of mitochondria to convert 3-(4,5-dimethylthiazol-2-yl)-2,5-diphenyl tetrazolium bromide (MTT) to insoluble formazan product. Briefly, cells were grown in 96-well plates at a density of 1×10^4 cells/well. After incubation for 24 h, the cells were stimulated by UVB irradiation (40 mJ/cm^2) and incubated for 24 h in the absence or presence of (2′S)-columbianetin at 37° C. under a humidified atmosphere of 5% CO2. The supernatant medium was removed and 100 μL of 1 mg/mL MTT reagent was added to each well, followed by incubation for 4 h. After removal of unconverted MTT, the amount of formazan in the cells was determined by adding DMSO (dimethyl sulfoxide) to wells and measuring optical density (OD) at 540 nm using a microplate reader (Tacan Austria GmbH, Salzburg, Austria). Relative cell viability was calculated as the percentage of viability of untreated cells that were considered the control. […]
# HaCaT cells [2] = assay: LDH release assay, cell injury of UVB-exposed cells; details: UVB 40 mJ/cm^2, incubation 24 h, FIG. 2B
# Method: as §1
# Cell injury was measured by quantifying the amount of lactate dehydrogenase (LDH)-release using a commercial LDH cytotoxicity detection kit (TaKaRa Biomedicals, Tokyo, Japan). Cells were exposed according to the experiment design. The conditioned medium of the UVB-exposed cells was collected for LDH measurement. The substrate mix solution was added to aliquots of the supernatant medium at 1:1 ratio and incubated at 37° C. for 30 min under light protected conditions. Then, the absorbance was determined at 490 nm immediately after the addition of 1N HCl stop solution (final concentration, 0.2 N) using a microplate reader (Tacan Austria GmbH, Salzburg, Austria). Control was prepared with 0.1% (w/v) Triton X-100, which was defined as 100% LDH release.
# (§2) Based on the above results, effects of (2′S)-columbianetin on the viability and injury degree of UVB-exposed keratinocyte cells were examined at incubation for 24 h after UVB exposure of 40 mJ/cm^2.
# HaCaT cells [3] = assay: Microscopic image of morphological changes in UVB-exposed cells; details: UVB 40 mJ/cm^2, microscopic image, FIG. 2C
# Method: as §1
# To determine the appropriate energy level of UVB irradiation, the cytotoxicity of keratinocytes cultured from the above was determined by comparing the data obtained from MTT and LDH leakage for 6, 12, 24 and 48 h after UVB irradiation from 10 to 3000 mJ/cm^2. Exposure of cells to UVB energy induced significant decrease of cell viability (FIG. 1A) and increase of LDH release in a UVB exposure-dependent manner (FIG. 1B). Morphological changes in keratinocyte cells for different incubation periods (6, 12, 24 and 48 h) after UVB exposure of cells in a range of 10-3000 mJ/cm^2 were compared (FIG. 1C). A larger proportion of cells were swelling and dying in a dose- and time-dependent manner.
# as §2
# intracellular ROS = assay: Intracellular ROS generation (DCFH-DA) in UVB-exposed cells; details: UVB 40 mJ/cm^2, treated 24 h, FIG. 3
# Method: as §1
# The levels of intracellular ROS generation were detected using the oxidation sensitive dye 2′,7′-dichlorofluorescin diacetate (DCFH-DA). The cells were grown in a 96-well microplate with fluorescence for 24 h and followed by exposure to UVB (40 mJ/cm^2). The exposed cells were treated with (2′S)-columbianetin for 24 h and then they were loaded with 20 μM of DCFH-DA in PBS and incubated for 30 min in the dark at 37° C. under a humidified atmosphere with 5% CO2. Finally, cells were washed twice with PBS and the fluorescence of DCF in PBS was detected at an excitation wavelength of 485 nm and an emission wavelength of 535 nm using a fluorescence microplate reader (Tacan Austria GmbH, Salzburg, Austria) and the result is shown in FIG. 3.
# [4] = system: genomic DNA of keratinocyte cells; assay: Genomic DNA extraction and DNA oxidation, agarose gel; details: UVB-stimulated cells, FIG. 4
# Method: as §1
# Genomic DNA was isolated from keratinocyte cells using standard phenol/proteinase K procedure with slight modifications (J. Sambrook, D. W. Russell, Molecular Cloning: A Laboratory Manual; 3rd ed. Cold Spring Harbor Laboratory Press: Cold Spring Harbor. 2001). In brief, UVB-stimulated cells in the presence and absence of sample were washed twice with PBS and collected using 1 mL of PBS containing 10 mM EDTA. After centrifugation at 13,400×g for 5 min at 4° C., the deposited cells were resuspended in 410 μL of solution including RNase A (0.5 mg/mL), proteinase K (10 mg/mL), SDS (10%) and NaOAC (0.2 M). After that, this mixture was incubated at 37° C. for 30 min and 55° C. for 1 h. Following incubation, phenol:chloroform:iso-amylalcohol (25:24:1) was added at 1:1 ratio, after which the mixture was centrifuged at 13,400×g for 5 min at 4° C. […] Purity of DNA was determined by ratio of absorbance at 260 and 280 nm using spectrophotometric assay. […]
# MMP-2 (gelatinase A) = assay: RT-PCR and Western blot, MMP-2 expression in UVB-exposed cells; details: HaCaT, UVB 40 mJ/cm^2, RT-PCR and Western blot, FIG. 5
# Method: as §1
# (§3) Total cellular RNA was isolated using Trizol reagent (Invitrogen Co., CA, USA). The 2 μg of isolated RNA was reverse transcribed into cDNA using oligo-(dT) primer (Promega, Madison, Wis., USA). […] Finally, the relative band densities were determined using a LAS3000® Luminescent image analyzer (Fujifilm Life Science, Tokyo, Japan).
# (§4) Whole cells were lysed in RIPA buffer (Sigma-Aldrich Corp., St. Louis, USA) at 4° C. for 30 min. After centrifugation, total protein amount of cell lysates were determined using Lowry method (BioRad Laboratories, Hercules, Calif.). […] Bound antibodies were detected by horseradish peroxidase-conjugated secondary antibodies for 1 h at room temperature and the immunoreactive proteins were detected using a chemiluminescent ECL assay kit (Amersham Pharmacia Biosciences, England, UK) according to the manufacturer's instructions. […]
# MMP-9 (gelatinase B) = assay: RT-PCR and Western blot, MMP-9 expression in UVB-exposed cells; details: HaCaT, UVB 40 mJ/cm^2, RT-PCR and Western blot, FIG. 5
# Method: as §1, §3, §4
# TIMP-1 = assay: RT-PCR and Western blot, TIMP-1 expression in UVB-exposed cells; details: HaCaT, UVB 40 mJ/cm^2, FIG. 5
# Method: as §1, §3, §4
# TIMP-2 = assay: RT-PCR and Western blot, TIMP-2 expression in UVB-exposed cells; details: HaCaT, UVB 40 mJ/cm^2, FIG. 5
# Method: as §1, §3, §4
# [5] = system: c-Jun N-terminal kinase (JNK); assay: Western blot, phosphorylated JNK in UVB-exposed cells; details: UVB-exposed HaCaT cells, FIG. 6
# Method: as §1, §4
# p38 MAPK = assay: Western blot, phosphorylated p38 MAPK in UVB-exposed cells; details: UVB-exposed HaCaT cells, FIG. 6
# Method: as §1, §4
# [6] = system: extracellular signal-related kinase (ERK1/2); assay: Western blot, phosphorylated ERK1/2 in UVB-exposed cells; details: UVB-exposed HaCaT cells, FIG. 6
# Method: as §1, §4
# c-fos = assay: Western blot, AP-1 activation (c-fos) in UVB-exposed cells; details: UVB-exposed HaCaT cells, FIG. 7A
# Method: as §1, §4
# p53 = assay: Western blot, phosphorylated p53 in UVB-exposed cells; details: UVB-exposed HaCaT cells, FIG. 7B
# Method: as §1, §4
# Bax = assay: Western blot, Bax in UVB-exposed cells; details: UVB-exposed HaCaT cells, FIG. 7B
# Method: as §1, §4
structure (smiles),measurement,setting,value
CC(C)(O)C1Cc2c(ccc3ccc(=O)oc23)O1 (stereo not drawn) [(2′S)-columbianetin],cell viability (MTT),HaCaT cells [1],substantially increased cell viability in a dose-dependent manner
same,degree of cell injury (LDH release),HaCaT cells [2],substantially decreased the degree of cell injury by UVB exposure in a dose-dependent manner
same,morphological changes in cells due to UV,HaCaT cells [3],effectively suppressed the morphological changes in cells
same,DCF fluorescence intensity (intracellular ROS),intracellular ROS,significantly reduced DCF fluorescence intensity in a dose-dependent manner
same,protective effect on DNA damage due to UVB exposure,[4],adequate protective effect on DNA damage
same,expression level of UVB-mediated gelatinase A (MMP-2) gene and protein,MMP-2 (gelatinase A),reduced by (2′S)-columbianetin in a dose-dependent manner
same,expression level of UVB-mediated gelatinase B (MMP-9) gene and protein,MMP-9 (gelatinase B),reduced by (2′S)-columbianetin in a dose-dependent manner
same,TIMP-1 expression,TIMP-1,dose-dependently enhanced
same,TIMP-2 expression,TIMP-2,dose-dependently enhanced
same,expression of phosphorylated JNK protein,[5],effectively decreased the regulations
same,expression of phosphorylated p38 MAPK protein,p38 MAPK,effectively decreased the regulations
same,expression of phosphorylated ERK1/2 protein,[6],effectively decreased the regulations
same,activated nuclear transcription factor c-fos,c-fos,significantly down-regulated
same,expression level of phosphorylated p53,p53,the increments were suppressed
same,expression level of Bax protein,Bax,the increments were suppressed
